Where two headings read alike, the source gives them in different places.
How the values were obtained:
white-blood-cells (WBC) = format: in vivo; details: 5 mg/kg s.c. 4F-benzoyl-TN14003 or AMD3100, 2 h, G-CSF 2.5 μg s.c. twice a day for 4 days, combination 18 h after last G-CSF
[1] = test system: hematopoietic progenitor cells (HPCs); experiment: Mobilization of hematopoietic progenitor cells to the blood, colony-forming cell assay; format: in vivo, C57BL/6 mice; details: 5 mg/kg s.c. 4F-benzoyl-TN14003 or AMD3100, 2 h, G-CSF 2.5 μg s.c. twice a day for 4 days, combination 18 h after last G-CSF
[2] = test system: hematopoietic stem cells (HSCs); experiment: Hematopoietic stem cell assay: transplantation of mobilized blood cells into lethally irradiated mice, survival; format: in vivo, C57BL/6 mice; details: 2 h
Procedure: C57BL/6 mice, served as donors, were injected with 5 mg/kg of either 4F-benzoyl-TN14003 or AMD3100. 2 h later peripheral blood cells were collected following by ACK lysis and transferred into C57BL/6 recipient mice that were given a lethal dosing of irradiation (900 cGy) 24 h before i.v. injection of cells. A total cell obtained from 900 or 225 microliter of blood was transferred into single recipient mouse in a total volume of 200 μl PBS. Recipient mice transferred with cells obtained from blood of untreated mice or with normal BM cells were served as controls. Survival of mice was monitored for 4 months.
Although mobilization of HPCs may be of use for short-term repopulation in a transplantation setting, HSCs are required for long-term repopulation. To assess the effect of 4F-benzoyl-TN14003 on mobilization of murine HSCs, a transplantation model was used, in which donor C57Bl/6 mice were treated with 4F-benzoyl-TN14003 or AMD3100. After 2 h, blood was collected and cells isolated from an equal volume of blood obtained from each treated group (900 or 225 microliter in different experiments) were transferred for engraftment in lethally irradiated recipient C57Bl/6 mice. Survival of the recipient mice, indicative for long-term repopulating (LTR) activity and presence of HSCs, was monitored.

[3] = test system: BM cells on stromal cells (14F1.1); experiment: In vitro production of progenitors and mature cells from BM cells seeded on stromal cells (14F1.1); format: cell-based
Procedure: More specifically, the number of colonies was assayed by collecting the cells (10^5/plate) 4 days after treatment form the treated and control (untreated) plates, and evaluating the number of progenitor cells using a colony-forming cell assay. Burst forming units erythrocyte (BFU-E), colony forming units granulocyte-macrophage (CFU-GM), colony forming units megakaryocytes (CFU-M), and colony forming units granulocyte-erythrocyte-monocyte-macrophage (CFU-GEMM) were assayed by plating the cells in Iscove's-modified Dulbecco's Medium (IMDM) containing 1% methylcellulose, 15% FBS, 1% bovine serum albumin (BSA), 3 U/mL rh EPO, […] 2-mercaptoethanol, 2 mM L-glutamine, 50 ng/mL rmSCF, 10 ng/mL rmIL-3, […] rh Insulin, 10 ng/mL rh IL-6, and […] Human Transferrin (Methocult GF M3434; StemCell Technologies Inc.). The cultures were incubated at 37° C. in a humidified atmosphere containing 5% CO2. Seven days later, typical colonies were visually scored by morphologic criteria using a light microscope and the frequency of CFU was calculated. Staining colonies with benzidine dihydrochloride (Sigma, Israel) was used to localize hemoglobin-containing cells.

PC3 cells = experiment: MIP3α secretion by PC3 prostate cells (ELISA); format: cell-based
Source text: (§1) A PC3 prostate cell line that overexpresses high levels of CXCR4 was generated. […] FIG. 1A presents FACS histograms of PC3 cells (left panel) and a single cell clone with stable overexpression of CXCR4, GFP and luc genes (PC3-CXCR4.5, right panel) that were stained for the control (IgG2a-PE, full histograms) and CXCR4 (IgG2a-12G5, empty histograms) antibodies.
(§2) In this example, regulation of the chemokine MIP3α (macrophage inflammatory protein 3α) was examined. […] In FIG. 1B, PC3 (left panel) and PC3-CXCR4.5 (right panel) cells were stimulated with the indicated concentrations of CXCL12 for 48 hours and MIP3α secretion was assessed by ELISA. The results represent the average of triplicates±STDEV.
(§3) The effects of the CXCR4 antagonist AMD3100 and of 4F-benzoyl-TN14003 (4FB-TN14003), hitherto known as a CXCR4 antagonist, on MIP3α secretion were further tested. […] In FIG. 10, CXCR4 signaling in PC3 (left panel) and PC3-CXCR4.5 (right panel) cells was inhibited with anti-CXCL12 antibodies (αCXCL12) and Pertussis toxin (PTX) treatments alone or in combination with CXCL12, as indicated. Secretion of MIP3α was assessed by ELISA. The results represent the average of triplicates±STDEV.

PC3-CXCR4.5 cells = experiment: MIP3α secretion by CXCR4-overexpressing PC3-CXCR4.5 cells (ELISA); format: cell-based
Source text: as §1, §2, §3
Spontaneous secretion of MIP3α is CXCL12 and PTX independent in these cells.

neutrophils = experiment: Chemotherapy (cyclophosphamide)-induced neutropenia model, neutrophil counts; format: in vivo, C57BL/6 mice; details: cyclophosphamide 150 + 100 mg/kg i.p. days 1 and 4, treatment s.c. days 4-7 (4F-benzoyl-TN14003 5 mg/kg)
Procedure: In the chemotherapy-induced neutropenia model, a protocol as previously described was followed (Zuluaga et al., 2006). Briefly, Female C57BL/6 mice were injected intraperitoneally with 150 and 100 mg/kg of Cyclophosphamide (CPM) on days 1 and 4, respectively. Following the treatment with CPM, mice were injected s.c. with either G-CSF […], 4F-benzoyl-TN14003 (5 mg/kg) or their combination on day 4, 5, 6 and 7. Blood samples were drawn from each mouse on day 0 and two hours after G-CSF/4F-benzoyl-TN14003 injections on days 4, 5, 6 and 7. Lysis of the erythrocyte population in the blood samples was done using ACK lysis buffer. The number of neutrophils was determined by FACS after staining the cells with anti-PE-Gr-1 antibody.
Neutropenia was induced in female C57BL/6 mice by administration of a total dose of 250 mg/kg cyclophosphamide (CPM) in two 0.5 mL intraperitoneal injections scheduled at day 1 (150 mg/kg) and day 4 (100 mg/kg). The CPM protocol caused 4 days of neutropenia (from day 4 to day 8). When mice were treated with the combination of G-CSF and 4F-benzoyl-TN14003, a significant number of neutrophils was detected in the blood on day 6, as compared to mice that were treated with CPM only or with G-CSF or 4F-benzoyl-TN14003 alone (FIG. 12).

[4] = test system: granulocytes (GR-1 positive cells); experiment: Granulocyte (GR-1 positive) counts in blood and bone marrow in a chemotherapy model; format: in vivo, mice; details: CPM 250 mg/kg total i.p.; 4F-benzoyl-TN14003 5 mg/kg s.c., G-CSF 5 μg/mouse
Procedure: Mice received a total dose of 250 mg/kg cyclophosphamide (CPM) by two 0.25 ml intra-peritoneal injections scheduled at day 0 (150 mg/kg) and day 3 (100 mg/kg). Mice were subcutaneously treated with 0.2 ml of 4F-benzoyl-TN14003 (5 mg/kg) at the indicated time points, as detailed in FIG. 13A. Flow cytometery was used to assess the number of cells in the blood and bone marrow (BM), and distinguish between the different populations. Cells were gated according to forward scatter and side scatter to exclude dead cells and to identify granulocytes (GR-1 positive cells).
Mice received a total dose of 250 mg/kg CPM by two 0.25 ml intra-peritoneal injections scheduled at day 0 (150 mg/kg) and day 3 (100 mg/kg). Mice were subcutaneously treated with 0.2 ml of 4F-benzoyl-TN14003 (5 mg/kg) or G-CSF 5 μg/mouse or the combination of both at the indicated time points as detailed in FIG. 14A. Flow cytometery was used to assess the number of cells in the blood and bone marrow (BM) and distinguish between the different populations. Cells were gated according to forward scatter and side scatter to exclude dead cells and to determine granulocytes (GR-1 positive cells).

For `c1cc(CN2CCCNCCNCCCNCC2)ccc1CN1CCCNCCNCCCNCC1` [AMD3100, reference compound], the “Activated macrophages, fold elevation of cell counts from control” value (white-blood-cells (WBC)) was 6.1 fold, the “MNC, fold elevation of cell counts from control” value (white-blood-cells (WBC)) was 3.4 fold and the “Neutrophils, fold elevation of cell counts from control” value (white-blood-cells (WBC)) was 8 fold. For the same molecule, the “Neutrophils, fold elevation of cell counts from control” value (white-blood-cells (WBC); listed as AMD31000) was 8.0 fold, the “Total WBC, fold elevation of cell counts from control” value (white-blood-cells (WBC); listed as AMD31000) was 2.9 fold and the “BFU-E in blood, fold elevation of cell counts from control” value (“BFU-E in blood, fold elevation” for short) [1] was about 30 fold. For the same molecule, the “CFU-GEMM in blood, fold elevation of cell counts from control” value [1] was 15.5 fold, the “Progenitors in blood, fold elevation of cell counts from control” value [1] was 4.2 fold and the “BFU-E in blood, fold elevation” value ([1]; listed as AMD31000) was 35 fold. The “survival of lethally irradiated recipient mice” value ([2]; cells from 225 microliter of blood of donors given 5 mg/kg, day 33 post transplantation) was 37.5%, the “survival of lethally irradiated recipient mice” value ([2]; cells from 900 microliter of blood of donors given 5 mg/kg, day 11 post transplantation) was 73% and the “production of GR-1 and Ter119 positive cells and progenitors” value ([3]; stromal cells (14F1.1) seeded with BM cells, 4F-benzoyl-TN14003 10 microgram/ml, G-CSF 100 ng/ml, 4 days) was “did not demonstrate this effect”.

With “CXCL12: chemokine, CXCR4's only natural ligand” the MIP3α secretion (PC3 cells) was “increased the secretion of MIP3α”, the MIP3α secretion (PC3-CXCR4.5 cells; PC3-CXCR4.5 cells, ELISA) was “increased the secretion of MIP3α” and the “CXCR4 dependence of induced MIP3α secretion” value (PC3-CXCR4.5 cells; transfection with CXCR4-specific or control siRNA) was “CXCR4 dependent”.

B1: G-CSF: Granulocyte colony-stimulating factor (G-CSF) (Filgrastim Neupogen) (protein, UniProt P09919 31-207, looked up)
Granulocyte …: TPLGPASSLPQSFLLKCLEQVRKIQGDGAALQEKLVSECATYKLCHPEELVLLGHSLGIPWAPLSSCPSQALQLAGCLSQLHSGLFLYQGLLQALEGISPELGPTLDTLQLDVADFATTIWQQMEELGMAPALQPTQGAMPAFASAFQRRAGGVLVASHLQSFLEVSYRVLRHLAQP
modifications: N-terminal methionine
In the case of B1, the “Activated macrophages, fold elevation of cell counts from control” value (white-blood-cells (WBC)) is reported as 1.4 fold, the “MNC, fold elevation of cell counts from control” value (white-blood-cells (WBC)) is reported as 1.4 fold and the “Total WBC, fold elevation of cell counts from control” value (white-blood-cells (WBC)) is reported as 1.9 fold. For the same molecule, the “BFU-E in blood, fold elevation” value [1] was 142 fold, the “CFU-GEMM in blood, fold elevation of cell counts from control” value [1] was 151 fold and the “Progenitors in blood, fold elevation of cell counts from control” value [1] was 13.6 fold. For the same molecule, the “number of neutrophils in blood as % of the initial number in normal (untreated) mice” value (neutrophils; day 6) was “only a mild effect”, the “number of neutrophils in blood as % of the initial number” value (neutrophils; day 7) was “not sufficient to elevate neutrophil counts to their normal level” and the “GR-1 positive cells in the blood (flow cytometry)” value [4] was “mobilize GR-1 positive cells and reduce neutropenia”. For the same molecule, the “differentiation and proliferation of BM cells on stromal cells (micrographs)” value ([3]; representative experiment, FIG. 17E) was “differentiating and proliferating”.
